Results reported in paper PMC6110851, “An Optimized MicroPET Imaging Method for the Distribution and Synergies of Natural Products” (Frontiers in Pharmacology, 2018).

Experiment: MicroPET biodistribution of [^18F]-GA in mice
Format: in vivo
Settings: for time to peak in organ: after injection
Procedure: The mice were grouped by weight and housed in cages of the climate control room (25°C), with a photoperiod 12:12-h. During feeding, mice were free to access food and water. Mice were fasted for 24 h before the experiment. The mice were anesthetized with 4% isoflurane while preparing for scanning ([Constantinescu et al., 2013b]; [Cui et al., 2017]). Eighteen healthy male Kunming mice, weighing 20 ± 2 g, were divided into three groups, which were control group, once-administered (OA) group and long-term administration (LA) group. In the OA group, 1 h before the administration of [^18F]-GA, the mice were orally treated with PG polysaccharides. In the LA group, the mice were orally given the PG polysaccharides for 7 days, but not before the administration of [^18F]-GA.
Rice received a tail vein injection (8.67 ± 2.14 MBq/μg) of [^18F]-GA and placed in the scanner bed and mouse-imaging room immediately ([Constantinescu et al., 2013b]; [O’Doherty et al., 2017]). Firstly, 2 h PET scanning was performed using an Inveon-dedicated PET scanner. The average delay between injection and starting of PET scanning was 3.5 min. Rice were maintained stable under 4% isoflurane anesthesia throughout scanning. The PET list-mode data were dynamically classified into 23 3D sinograms of span and three ring difference. After Fourier recombination, the data were reconstructed using a 2D ordered-subset expectation maximization algorithm. Random events were excluded before reconstruction. The response of detector is normalized using a component-based approach. All dynamic images were corrected for radioactive decay automatically. The PET images were reconstructed by a cone beam algorithm into 480 × 480 × 632 image arrays. After the reconstruction, images were spatially transformed to match the PET images ([Constantinescu et al., 2013a],[b]).
The reconstruction of the image was performed using the PMOD software (PMOD Technologies). The 3D volumes of interest (VOIs) were drawn manually of the following organs: brain, heart, liver, lungs, kidneys, cortical bone, and gallbladder. The organs were carefully identified and VOIs were drawn as irregular contours on high-resolution PET images obtained from each mouse ([Constantinescu et al., 2013b]; [Garg et al., 2017]). The size of each VOI was less than the actual size of each organ to minimize the effects of PET on adjacent organ spills. The VOIs drawing was verified by a second operator. The VOIs of cortical bone were generated by first using PET image to depict the entire femur bone ([Constantinescu et al., 2013b]). The VOI was transferred to a dynamic PET image and the mean time-activity curve (TAC) of the decay correction was extracted for each target organ ([Constantinescu et al., 2013b]).

[1] = mice, tail vein injection, Time(s) 60
[2] = mice, tail vein injection, Time(s) 180
[3] = mice, tail vein injection, Time(s) 300
[4] = mice, tail vein injection, Time(s) 420
[5] = mice, tail vein injection, Time(s) 660
[6] = mice, tail vein injection, Time(s) 780
[7] = mice, tail vein injection, Time(s) 900
[8] = mice, tail vein injection, Time(s) 1020
[9] = mice, tail vein injection, Time(s) 1140
[10] = mice, tail vein injection, Time(s) 1350
[11] = mice, tail vein injection, Time(s) 1650
[12] = mice, tail vein injection, Time(s) 1950
[13] = mice, tail vein injection, Time(s) 2250
[14] = mice, tail vein injection, Time(s) 2700
[15] = mice, tail vein injection, Time(s) 3300
[16] = mice, tail vein injection, Time(s) 3900
[17] = mice, tail vein injection, Time(s) 4500
[18] = mice, tail vein injection, Time(s) 5100
[19] = mice, tail vein injection, Time(s) 5700
[20] = mice, tail vein injection, Time(s) 6300
[21] = mice, tail vein injection, Time(s) 6900

Structure (SMILES): CC1(C)[C@@H](O)CC[C@]2(C)[C@H]3C(=O)C=C4[C@@H]5C[C@@](C)(C(=O)NCCCC[18F])CC[C@]5(C)CC[C@@]4(C)[C@]3(C)CC[C@@H]12 [[^18F]-GA, [^18F]-Glycyrrhetinic acid]
- organ of highest uptake (all mice): highest uptake was found in the liver
- time to peak in organ (gallbladder, mice, maintained on the peak): 30 min
- time to peak in organ (heart, lung, and kidney, mice): immediately reached a peak
- time to peak in organ (liver, mice): 7 min
- brain concentrations (mice, MicroPET 3-130 min): consistently low
- route of excretion of radioactivity (mice, radiotracer found in the gallbladder): excreted via the biliary
- Organs (%ID/g) Brain [1]: 1.19 %ID/g
- Organs (%ID/g) Gallbladder [1]: 11.19 %ID/g
- Organs (%ID/g) Heart [1]: 12.13 %ID/g
- Organs (%ID/g) Kidney [1]: 9.67 %ID/g
- Organs (%ID/g) Liver [1]: 13.03 %ID/g
- Organs (%ID/g) Brain [2]: 0.79 %ID/g
- Organs (%ID/g) Gallbladder [2]: 14.59 %ID/g
- Organs (%ID/g) Heart [2]: 6.52 %ID/g
- Organs (%ID/g) Kidney [2]: 8.98 %ID/g
- Organs (%ID/g) Liver [2]: 17.00 %ID/g
- Organs (%ID/g) Brain [3]: 0.73 %ID/g
- Organs (%ID/g) Gallbladder [3]: 19.88 %ID/g
- Organs (%ID/g) Heart [3]: 4.75 %ID/g
- Organs (%ID/g) Kidney [3]: 7.13 %ID/g
- Organs (%ID/g) Liver [3]: 16.13 %ID/g
- Organs (%ID/g) Heart [4]: 4.07 %ID/g
- Organs (%ID/g) Kidney [4]: 6.26 %ID/g
- Organs (%ID/g) Liver [4]: 14.94 %ID/g
- Organs (%ID/g) Brain [5]: 0.58 %ID/g
- Organs (%ID/g) Gallbladder [5]: 26.93 %ID/g
- Organs (%ID/g) Heart [5]: 3.50 %ID/g
- Organs (%ID/g) Kidney [5]: 5.00 %ID/g
- Organs (%ID/g) Liver [5]: 12.33 %ID/g
- Organs (%ID/g) Lung [5]: 2.45 %ID/g
- Organs (%ID/g) Brain [6]: 0.61 %ID/g
- Organs (%ID/g) Gallbladder [6]: 29.01 %ID/g
- Organs (%ID/g) Heart [6]: 3.33 %ID/g
- Organs (%ID/g) Kidney [6]: 4.73 %ID/g
- Organs (%ID/g) Liver [6]: 11.32 %ID/g
- Organs (%ID/g) Brain [7]: 0.54 %ID/g
- Organs (%ID/g) Gallbladder [7]: 30.51 %ID/g
- Organs (%ID/g) Kidney [7]: 4.52 %ID/g
- Organs (%ID/g) Liver [7]: 10.43 %ID/g
- Organs (%ID/g) Brain [8]: 0.56 %ID/g
- Organs (%ID/g) Gallbladder [8]: 33.20 %ID/g
- Organs (%ID/g) Heart [8]: 3.03 %ID/g
- Organs (%ID/g) Kidney [8]: 4.23 %ID/g
- Organs (%ID/g) Liver [8]: 9.66 %ID/g
- Organs (%ID/g) Brain [9]: 0.52 %ID/g
- Organs (%ID/g) Gallbladder [9]: 34.49 %ID/g
- Organs (%ID/g) Heart [9]: 2.92 %ID/g
- Organs (%ID/g) Kidney [9]: 4.04 %ID/g
- Organs (%ID/g) Liver [9]: 9.05 %ID/g
- Organs (%ID/g) Brain [10]: 0.49 %ID/g
- Organs (%ID/g) Gallbladder [10]: 36.96 %ID/g
- Organs (%ID/g) Kidney [10]: 3.71 %ID/g
- Organs (%ID/g) Liver [10]: 8.34 %ID/g
- Organs (%ID/g) Brain [11]: 0.41 %ID/g
- Organs (%ID/g) Gallbladder [11]: 40.92 %ID/g
- Organs (%ID/g) Heart [11]: 2.67 %ID/g
- Organs (%ID/g) Kidney [11]: 3.30 %ID/g
- Organs (%ID/g) Liver [11]: 7.55 %ID/g
- Organs (%ID/g) Brain [12]: 0.42 %ID/g
- Organs (%ID/g) Gallbladder [12]: 42.68 %ID/g
- Organs (%ID/g) Heart [12]: 2.64 %ID/g
- Organs (%ID/g) Liver [12]: 6.96 %ID/g
- Organs (%ID/g) Brain [13]: 0.39 %ID/g
- Organs (%ID/g) Gallbladder [13]: 44.48 %ID/g
- Organs (%ID/g) Heart [13]: 2.82 %ID/g
- Organs (%ID/g) Kidney [13]: 2.79 %ID/g
- Organs (%ID/g) Liver [13]: 6.50 %ID/g
- Organs (%ID/g) Brain [14]: 0.42 %ID/g
- Organs (%ID/g) Gallbladder [14]: 43.79 %ID/g
- Organs (%ID/g) Heart [14]: 2.37 %ID/g
- Organs (%ID/g) Kidney [14]: 2.52 %ID/g
- Organs (%ID/g) Liver [14]: 5.90 %ID/g
- Organs (%ID/g) Brain [15]: 0.37 %ID/g
- Organs (%ID/g) Gallbladder [15]: 45.86 %ID/g
- Organs (%ID/g) Heart [15]: 2.43 %ID/g
- Organs (%ID/g) Kidney [15]: 2.22 %ID/g
- Organs (%ID/g) Liver [15]: 5.27 %ID/g
- Organs (%ID/g) Brain [16]: 0.37 %ID/g
- Organs (%ID/g) Gallbladder [16]: 46.86 %ID/g
- Organs (%ID/g) Heart [16]: 2.63 %ID/g
- Organs (%ID/g) Liver [16]: 4.83 %ID/g
- Organs (%ID/g) Brain [17]: 0.45 %ID/g
- Organs (%ID/g) Gallbladder [17]: 41.98 %ID/g
- Organs (%ID/g) Heart [17]: 2.11 %ID/g
- Organs (%ID/g) Kidney [17]: 1.92 %ID/g
- Organs (%ID/g) Liver [17]: 4.51 %ID/g
- Organs (%ID/g) Brain [18]: 0.38 %ID/g
- Organs (%ID/g) Gallbladder [18]: 39.31 %ID/g
- Organs (%ID/g) Heart [18]: 2.28 %ID/g
- Organs (%ID/g) Kidney [18]: 1.82 %ID/g
- Organs (%ID/g) Liver [18]: 4.27 %ID/g
- Organs (%ID/g) Brain [19]: 0.41 %ID/g
- Organs (%ID/g) Gallbladder [19]: 36.96 %ID/g
- Organs (%ID/g) Heart [19]: 1.96 %ID/g
- Organs (%ID/g) Liver [19]: 3.90 %ID/g
- Organs (%ID/g) Brain [20]: 0.46 %ID/g
- Organs (%ID/g) Gallbladder [20]: 39.06 %ID/g
- Organs (%ID/g) Heart [20]: 2.18 %ID/g
- Organs (%ID/g) Kidney [20]: 1.65 %ID/g
- Organs (%ID/g) Liver [20]: 3.82 %ID/g
- Organs (%ID/g) Brain [21]: 0.48 %ID/g
- Organs (%ID/g) Gallbladder [21]: 41.97 %ID/g
- Organs (%ID/g) Heart [21]: 2.64 %ID/g
- Organs (%ID/g) Kidney [21]: 1.59 %ID/g
- Organs (%ID/g) Liver [21]: 3.64 %ID/g
